From PMC10442599 (RSC Advances, 2023)
“Also recorded” adds a separate entry of the source.

Columns and labels:
Assay type in all cases: biochemical
Recombinant human MAO-A = molecular target: T1, Recombinant human MAO-A (Homo sapiens, UniProt P21397); test: Inhibition of MAO-A; conditions: for remaining activity at 10 µM: read-out: Residual activities at 10 μM (%) MAO-A
T1 sequence (P21397 1-527): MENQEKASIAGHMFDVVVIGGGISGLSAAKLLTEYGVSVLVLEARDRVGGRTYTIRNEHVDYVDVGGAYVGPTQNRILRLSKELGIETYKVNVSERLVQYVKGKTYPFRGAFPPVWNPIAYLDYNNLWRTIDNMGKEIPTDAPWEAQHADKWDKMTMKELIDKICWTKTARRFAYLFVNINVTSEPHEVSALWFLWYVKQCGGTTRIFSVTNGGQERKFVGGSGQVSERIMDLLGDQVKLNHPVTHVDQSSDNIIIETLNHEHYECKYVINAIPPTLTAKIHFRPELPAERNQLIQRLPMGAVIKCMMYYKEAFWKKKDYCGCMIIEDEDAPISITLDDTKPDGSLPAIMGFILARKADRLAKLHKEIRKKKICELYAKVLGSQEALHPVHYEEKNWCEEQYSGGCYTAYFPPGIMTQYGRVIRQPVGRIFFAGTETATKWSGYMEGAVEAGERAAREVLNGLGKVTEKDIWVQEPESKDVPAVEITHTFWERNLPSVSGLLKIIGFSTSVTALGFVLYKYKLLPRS

MAO-B [1] = molecular target: T2, MAO-B (Homo sapiens, UniProt P27338); test: Inhibition of MAO-B; conditions: for SI (MAO), selectivity index = IC50 (MAO-A)/IC50(MAO-B): MAO-B over MAO-A; for remaining activity at 10 µM: read-out: Residual activities at 10 μM (%) MAO-B
T2 sequence (P27338 1-520): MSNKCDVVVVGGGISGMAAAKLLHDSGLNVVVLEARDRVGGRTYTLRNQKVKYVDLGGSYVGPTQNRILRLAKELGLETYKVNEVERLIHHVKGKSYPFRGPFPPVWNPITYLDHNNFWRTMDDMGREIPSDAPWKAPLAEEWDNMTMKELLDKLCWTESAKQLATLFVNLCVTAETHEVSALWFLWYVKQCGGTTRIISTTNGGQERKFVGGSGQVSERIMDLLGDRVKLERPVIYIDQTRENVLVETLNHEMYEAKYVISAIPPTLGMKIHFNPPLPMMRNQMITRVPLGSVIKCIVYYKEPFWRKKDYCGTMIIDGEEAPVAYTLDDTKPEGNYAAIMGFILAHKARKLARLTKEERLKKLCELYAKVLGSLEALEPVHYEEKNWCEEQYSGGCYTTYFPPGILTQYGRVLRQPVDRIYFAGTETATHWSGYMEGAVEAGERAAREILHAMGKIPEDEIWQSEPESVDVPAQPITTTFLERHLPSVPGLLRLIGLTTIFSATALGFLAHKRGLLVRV

AChE = test: Residual activity of AChE at 10 μM; conditions: inhibitor 10 μM
BChE = test: Residual activity of BChE at 10 μM; conditions: inhibitor 10 μM
MAO-B [2] = molecular target: T2, MAO-B; test: Enzyme kinetics of MAO-B inhibition
MAO-B [3] = molecular target: T2, MAO-B; test: Reversibility of MAO-B inhibition by dialysis; conditions: 2-times IC50

SMILES	IC50 (Recombinant human MAO-A)	remaining activity at 10 µM (Recombinant human MAO-A)	IC50 (MAO-B [1])	SI (MAO), selectivity index = IC50 (MAO-A)/IC50(MAO-B) (MAO-B [1])	remaining activity at 10 µM (MAO-B [1])	Residual activities at 10 μM (%) AChE (AChE)	Residual activities at 10 μM (%) BChE (BChE)	Ki (MAO-B [2])	Type of MAO-B inhibition (MAO-B [2]; Lineweaver–Burk plot)	Reversibility of MAO-B inhibition (MAO-B [3])
O=C1c2ccccc2N(Cc2ccccc2Br)C12CCCC2 [Compound 11k]	9.01 ± 0.36 µM	41.9 ± 4.56%	14.3 ± 1.45 µM	0.63	60.2 ± 1.44%	68.03 ± 3.68%	51.41 ± 0.53%			
Cc1ccc2c(c1)C(=O)C1(CCCC1)N2Cc1ccccc1 [Compound 11b]	> 40 µM	79.6 ± 5.03%	5.99 ± 0.36 µM		26.1 ± 2.75%	80.92 ± 5.07%	65.10 ± 0.74%			
O=C1c2cc(Br)ccc2N(Cc2ccccc2)C12CCCC2 [Compound 11d]	14 ± 0.96 µM	62 ± 0.94%	2.81 ± 0.71 µM	5.00	-16.2 ± 2.34%	81.90 ± 1.22%	71.19 ± 4.17%			
Cc1ccc2c(c1)C(=O)C1(CCCC1)N2 [Compound 10b]	> 40 µM	72.2 ± 3.58%	> 40 µM		82.2 ± 9.06%	83.39 ± 1.93%	73.82 ± 7.10%			
O=C1c2ccccc2N(Cc2ccc(Br)cc2)C12CCCC2 [Compound 11f]	17.2 ± 1.14 µM	67.9 ± 6.53%	1.44 ± 0.21 µM	11.91	5.22 ± 1.06%	68.95 ± 0.39%	72.06 ± 6.88%	0.51 ± 0.023 µM	competitive inhibitor; also recorded: competitive inhibition	reversible
O=C1c2ccccc2NC12CCCC2 [Compound 10a]	20.8 ± 2.89 µM	66.9 ± 2.47%	15.6 ± 2.33 µM	1.34	57 ± 2.99%	76.29 ± 6.64%	73.90 ± 4.90%			
